Reference: patent publication US9149041B2, “Stabilized and activated bromine solutions as a biocide and as an antifouling agent” (Bromine Compounds Ltd., priority 2009, dated 2015)

Columns and labels:
Format in all cases: cell-based
[1] = test system: Inoculum of bacteria (Activated sludge taken from Domestic Waste Water treatment Plant—Haifa); experiment: Microbial efficacy (% bacteria killed) at different TOC loading, activated sludge inoculum (Example 60); conditions: 30 min, pH 7
Procedure: (§1) Inoculum of bacteria (Activated sludge taken from Domestic Waste Water treatment Plant—Haifa).
(§2) R2A agar for general counting.
(§3) Tryptone, in amounts 0.025, 0.119, and 0.239 g solid tryptone respectively, was weighed and dissolved in 1 liter of buffer.
Neutralization solution (NaHSO4). […]
1) 1 ml of inoculum was added to tryptone solutions (placed in 3 Erlenmeyers, 100 ml each, with different concentrations of TOC-0, 10 and 50 ppm).
(§4) 2) 1 ml of each sample was inoculated on R2A agar (pour plate method). The result stands for the bacteria count at zero time.
3) For each of the tryptone concentrations (0, 10, 50 ppm TOC) an inoculum of bacteria (1 ml) and the appropriate biocide concentration were added.
(§5) 4) After 30 min. of shaking (100 rpm), 1 ml of each sample was transferred to a tube filled with 9 ml of the neutralization solution. An aliquot of 1 ml was taken from this solution and added to another tube containing 9 ml of buffer solution. The solution was mixed under vortex. This operation was repeated for 4 more times.
(§6) 5) 1 ml from the two lowest dilutions was inoculated on a R2A agar (by the pour plate method).
(§7) 6) After the plates were incubated at 25° C. for 5-7 days, the bacteria count was recorded.

[2] = test system: Pseudomonas aeruginosa (ATCC 15442); experiment: Microbial efficacy (% bacteria killed) at different TOC loading against Pseudomonas aeruginosa (Example 60)
Procedure: Pseudomonas aeruginosa (ATCC 15442) […]
2) 1 ml of each sample was inoculated on R2A agar (pour plate method). The result stands for the bacteria count at zero time. […]
as §5, §6, §7
7) The above experiment was repeated with Pseudomonas aeruginosa ATCC 15442 (instead of using an inoculums from sludge), which is representative bacteria that form biofilms.
Microbial efficacy of different biocides against Pseudomonas aeruginosa (ATCC 15442) replacing the use activated sludge bacteria.

[3] = test system: Pseudomonas aeruginosa (ATCC 15442) entrapped in alginate gel beads; experiment: Biocidal activity against simulated biofilm systems (alginate beads), Example 60
Procedure: The biofilm simulation was created by entrapping bacteria in alginate gel beads. […] Buffer phosphate at pH 7.2 was used to scrap off the bacteria from the agar plate and to create a suspension. The bacterial suspension was mixed with an equal volume of an aqueous 4% sodium alginate solution, to make a final 2% alginate solution. The alginate and bacterial slurry were placed in a 50 ml syringe attached to a gauge needle (22), connected to a compressed air tank, allowing the syringe to be pressurized. At 20 psig pressure a stream of small drops was forced out and dropped into a stirred solution of 50 mM CaCl2. The Ca^+2 hardened the alginate, and semi solid beads with entrapped bacterial cells were formed. The beads were allowed to stir in the CaCl2 solution for about 20 minutes, and then rinsed in a dilute 5 mM CaCl2 solution. Several flasks containing 100 beads each were incubated overnight at 35° C. on a rotating shaker in a buffer solution (at pH 7) with 5 mM addition of CaCl2 to maintain the beads structure. The resulting beads diameter is about 2 mm.
The neutralizer-citrate solution was placed in the refrigerator for 2 hours, than diluted and placed on R2A agar plates using pour plate technique. The plates were incubated at 35° C. for 24-48 hours and counted. The efficacy and toxicity of the neutralizer were checked as well as a control experiment without biocide addition. Four concentrations (0.5, 1, 2.5 and 5 ppm) were tested at four different contact times (5, 15, 30, and 60 min). […] In addition, the efficacy of bromourea from chlorourea and NaBr (1:0.5 molar ratio) was tested at the same concentrations (mentioned above) and after a long contact time of 24 hours (Table 23).

[4] = test system: Inoculum of bacteria (Activated sludge taken from Domestic Waste Water treatment Plant—Haifa); experiment: Microbial efficacy (% kill) at different TOC loading, activated sludge inoculum (Examples 12-13); conditions: TOC 100 ppm, 30 min, pH 7
Procedure: as §1, §2, §3
Neutralization solution (NaHSO4).
The biocidal efficacy of the antifouling composition at different organic loads of 0, […], 50 and 100 ppm TOC, was examined under different biocidal concentrations (1, 2.5, and 5 ppm) at pH 7.
1) 1 ml of inoculum was added to tryptone solutions (placed in […], 100 ml each, with different concentrations of TOC-0, 10, 50 and 100 ppm).
as §4
3) For each of the tryptone concentrations (0, 10, 50, 100 ppm TOC) an inoculum of bacteria (1 ml) and the appropriate biocide concentration were added.
as §5, §6, §7

[5] = TOC 0 ppm, biocide 2.5 ppm as Cl2
[6] = TOC 0 ppm, biocide 5 ppm as Cl2
[7] = TOC 0 ppm, biocide 10 ppm as Cl2
[8] = TOC 10 ppm, biocide 2.5 ppm as Cl2
[9] = TOC 10 ppm, biocide 5 ppm as Cl2
[10] = TOC 10 ppm, biocide 10 ppm as Cl2
[11] = TOC 50 ppm, biocide 2.5 ppm as Cl2
[12] = TOC 50 ppm, biocide 5 ppm as Cl2
[13] = TOC 50 ppm, biocide 10 ppm as Cl2
[14] = TOC 100 ppm, biocide 2.5 ppm as Cl2
[15] = TOC 100 ppm, biocide 5 ppm as Cl2
[16] = biocide 0.5 ppm as Cl2, contact time 0 (initial count)
[17] = biocide 0.5 ppm as Cl2, contact time 5 min
[18] = biocide 0.5 ppm as Cl2, contact time 15 min
[19] = biocide 0.5 ppm as Cl2, contact time 30 min
[20] = biocide 0.5 ppm as Cl2, contact time 60 min
[21] = biocide 1 ppm as Cl2, contact time 0 (initial count)
[22] = biocide 1 ppm as Cl2, contact time 5 min
[23] = biocide 1 ppm as Cl2, contact time 15 min
[24] = biocide 1 ppm as Cl2, contact time 30 min
[25] = biocide 1 ppm as Cl2, contact time 60 min
[26] = biocide 2.5 ppm as Cl2, contact time 0 (initial count)
[27] = biocide 2.5 ppm as Cl2, contact time 5 min
[28] = biocide 2.5 ppm as Cl2, contact time 15 min
[29] = biocide 2.5 ppm as Cl2, contact time 30 min
[30] = biocide 2.5 ppm as Cl2, contact time 60 min
[31] = biocide 5 ppm as Cl2, contact time 0 (initial count)
[32] = biocide 5 ppm as Cl2, contact time 5 min
[33] = biocide 5 ppm as Cl2, contact time 15 min
[34] = biocide 5 ppm as Cl2, contact time 30 min
[35] = biocide 5 ppm as Cl2, contact time 60 min

NC(=O)NBr [bromourea]
% bacteria killed [1, 5]: 99.14%
% bacteria killed [1, 6]: 98.59%
% bacteria killed [1, 7]: 99.88%
% bacteria killed [1, 8]: 95.48%
% bacteria killed [1, 9]: 99.64%
% bacteria killed [1, 10]: 99.89%
% bacteria killed [1, 11]: 7.34%
% bacteria killed [1, 12]: 91.16%
% bacteria killed [1, 13]: 97.69%
% bacteria killed [2, 5]: 100%
% bacteria killed [2, 6]: 100%
% bacteria killed [2, 7]: 100%
% bacteria killed [2, 8]: 100%
% bacteria killed [2, 9]: 100%
% bacteria killed [2, 10]: 100%
% bacteria killed [2, 11]: 0%
% bacteria killed [2, 12]: 99.36%
% bacteria killed [2, 13]: 100%
% bacteria killed [2, 14]: 0%
% bacteria killed [2, 15]: 7.14%
% bacteria killed ([2]; biocide 10 ppm as Cl2): 100%

NC(=O)NCl [chlorourea]
% bacteria killed [1, 5]: 56.09%
% bacteria killed [1, 6]: 75.17%
% bacteria killed [1, 7]: 80.46%
% bacteria killed [1, 8]: 67.59%
% bacteria killed [1, 9]: 72.64%
% bacteria killed [1, 10]: 85.06%
% bacteria killed [1, 11]: 64.37%
% bacteria killed [1, 12]: 72.41%
% bacteria killed [1, 13]: 78.85%
survival of bacteria (CFU) [3, 16]: 8.40 × 10^7 CFU
survival of bacteria (CFU) [3, 17]: 5.90 × 10^6 CFU
survival of bacteria (CFU) [3, 18]: 5.30 × 10^6 CFU
survival of bacteria (CFU) [3, 19]: 5.60 × 10^6 CFU
survival of bacteria (CFU) [3, 20]: 2.25 × 10^6 CFU
survival of bacteria (CFU) [3, 21]: 8.40 × 10^7 CFU
survival of bacteria (CFU) [3, 22]: 7.50 × 10^6 CFU
survival of bacteria (CFU) [3, 23]: 7.20 × 10^6 CFU
survival of bacteria (CFU) [3, 24]: 9.40 × 10^5 CFU
survival of bacteria (CFU) [3, 25]: 9.13 × 10^2 CFU
survival of bacteria (CFU) [3, 26]: 8.40 × 10^7 CFU
survival of bacteria (CFU) [3, 27]: 7.80 × 10^6 CFU
survival of bacteria (CFU) [3, 28]: 2.60 × 10^6 CFU
survival of bacteria (CFU) [3, 29]: 2.21 × 10^3 CFU
survival of bacteria (CFU) [3, 30]: 1.00 × 10^0 CFU
survival of bacteria (CFU) [3, 31]: 8.40 × 10^7 CFU
survival of bacteria (CFU) [3, 32]: 6.70 × 10^6 CFU
survival of bacteria (CFU) [3, 33]: 6.50 × 10^4 CFU
survival of bacteria (CFU) [3, 34]: 1.00 × 10^0 CFU
survival of bacteria (CFU) [3, 35]: 1.00 × 10^0 CFU
% bacteria killed [2, 5]: 93.33%
% bacteria killed [2, 6]: 99.33%
% bacteria killed [2, 7]: 100%
% bacteria killed [2, 8]: 93.77%
% bacteria killed [2, 9]: 99.77%
% bacteria killed [2, 10]: 100%
% bacteria killed [2, 11]: 94.93%
% bacteria killed [2, 12]: 99.81%
% bacteria killed [2, 13]: 100%
% bacteria killed [2, 14]: 94.20%
% bacteria killed [2, 15]: 99.77%
% bacteria killed ([2]; biocide 10 ppm as Cl2): 100%

[Na+].[O-]Cl [NaOCl, reference compound]
% bacteria killed ([1]; TOC 0 ppm, biocide 1 ppm as Cl2): 54.1%
% bacteria killed [1, 5]: 95.5%
% bacteria killed [1, 6]: 99.6%
% bacteria killed ([1]; TOC 10 ppm, biocide 1 ppm as Cl2): 3.7%
% bacteria killed [1, 8]: 34.6%
% bacteria killed [1, 9]: 97.1%
% bacteria killed ([1]; TOC 50 ppm, biocide 1 ppm as Cl2): 0%
% bacteria killed [1, 11]: 12.7%
% bacteria killed [1, 12]: 65.9%
survival of bacteria (CFU) [3, 16]: 8.00 × 10^6 CFU
survival of bacteria (CFU) [3, 17]: 7.90 × 10^6 CFU
survival of bacteria (CFU) [3, 18]: 5.65 × 10^6 CFU
survival of bacteria (CFU) [3, 19]: 4.72 × 10^6 CFU
survival of bacteria (CFU) [3, 20]: 5.00 × 10^6 CFU
survival of bacteria (CFU) [3, 21]: 8.00 × 10^6 CFU
survival of bacteria (CFU) [3, 22]: 4.40 × 10^6 CFU
survival of bacteria (CFU) [3, 23]: 3.30 × 10^6 CFU
survival of bacteria (CFU) [3, 24]: 2.15 × 10^6 CFU
survival of bacteria (CFU) [3, 25]: 1.20 × 10^6 CFU
survival of bacteria (CFU) [3, 26]: 8.00 × 10^6 CFU
survival of bacteria (CFU) [3, 27]: 3.60 × 10^6 CFU
survival of bacteria (CFU) [3, 28]: 1.83 × 10^6 CFU
survival of bacteria (CFU) [3, 29]: 7.60 × 10^6 CFU
survival of bacteria (CFU) [3, 30]: 1.95 × 10^5 CFU
survival of bacteria (CFU) [3, 31]: 8.00 × 10^6 CFU
survival of bacteria (CFU) [3, 32]: 1.74 × 10^6 CFU
survival of bacteria (CFU) [3, 33]: 6.80 × 10^6 CFU
survival of bacteria (CFU) [3, 34]: 3. × 10^6 CFU
survival of bacteria (CFU) [3, 35]: 1.00 × 10^0 CFU
% kill ([4]; biocide 1 ppm as Cl2): 0%
% kill ([4]; biocide 2.5 ppm as Cl2): 0%
% kill ([4]; biocide 5 ppm as Cl2): 0%
% bacteria killed [2, 5]: 100%
% bacteria killed [2, 6]: 100%
% bacteria killed [2, 7]: 100%
% bacteria killed [2, 8]: 43.10%
% bacteria killed [2, 9]: 100%
% bacteria killed [2, 10]: 100%
% bacteria killed [2, 11]: 17.24%
% bacteria killed [2, 12]: 18.97%
% bacteria killed [2, 13]: 100%
% bacteria killed [2, 14]: 0%
% bacteria killed [2, 15]: 27.59%
% bacteria killed ([2]; biocide 10 ppm as Cl2): 90.86%
